Experiments:
aldosterone [1] = assay: aldosterone-antagonistic properties in adrenalectomised rats (urine volume, sodium and potassium excretion); type: in vivo, Female Holtzmann rats; conditions: aldosterone s.c. 30 min later, urine collected 3 hours, control = aldosterone only
Description: If compounds of formula I are administered to the animals before the treatment with aldosterone, then there is observed, in comparison with animals which are treated only with aldosterone (control animals), a pronounced increase of the sodium excretion (i.e. the sodium retention caused by aldosterone is antagonised), whereas the potassium excretion and the urine volume are influenced to a lesser extent.
The standard experiment is carried out as follows:
Female Holtzmann rats (150-180 g) are bilaterally adrenalectomised 70 to 74 hours before the beginning of the experiment. After the operation, the animals receive a customary rat dry feed and 0.9 percent sodium chloride solution for drinking. 16 to 17 hours before the beginning of the experiment the feed is removed from the animals, but they can subsequently drink, as before, 0.9 percent sodium chloride solution ad libitum. At the beginning of the experiment the substance to be tested as an aldosterone-antagonist is administered to the animals by means of a stomach probe. 30 minutes later the animals receive a subcutaneous injection of 4 mmg/kg of aldosterone. After a further 90 minutes, the urinary bladders of the animals are emptied by careful suprapubic pressure, whereupon the animals are placed individually in metabolic cages without food and without drink. The urine of the animals is then collected for 3 hours, whereupon their urinary bladders are once more emptied. The spontaneously excreted urine and the remaining urine obtained at the conclusion of the experiment by pressing-out the urinary bladders are collected in graduated centrifuge glasses. Sodium and potassium concentrations in the urine are determined with a flame photometer.
(§1) The following Table contains results which have been obtained in the previously described experiment with representative compounds of formula I. In this Table there are given for each compound in question the dosage administered (in mg/kg p.o.) as well as the percentage variation in the urine volume, the sodium excretion and the potassium excretion in comparison with the control animals (i.e. in comparison with the animals treated only with aldosterone). Moreover, the Table contains data relating to the acute toxicity of the compounds investigated (LD 50 in mg/kg in the case of single oral administration to mice).

[2] = acute toxicity, single oral administration to mice; conditions: mouse, in vivo
Description: as §1

aldosterone [3] = assay: aldosterone-antagonistic properties in adrenalectomised rats (urine volume, sodium and potassium excretion); type: in vivo, Female Holtzmann rats; conditions: compared with untreated animals

Row | SMILES | potassium excretion [K+] in %, based on control animals (aldosterone [1]; 1 mg/kg p.o.) [%] | sodium excretion [Na+] in %, based on control animals (aldosterone [1]; 1 mg/kg p.o.) [%] | urine volume in %, based on control animals (aldosterone [1]; 1 mg/kg p.o.) [%] | LD50 [2] [mg/kg] | potassium excretion [K+] in %, based on control animals (aldosterone [1]; 10 mg/kg p.o.) [%] | sodium excretion [Na+] in %, based on control animals (aldosterone [1]; 10 mg/kg p.o.) [%] | urine volume in %, based on control animals (aldosterone [1]; 10 mg/kg p.o.) [%] | excreted urine volume, effect of aldosterone (aldosterone [3]) | potassium excretion, effect of aldosterone (aldosterone [3]) | sodium excretion, effect of aldosterone (aldosterone [3])
1 | CC1(C)N=C(c2ccccc2Cl)c2cc(NC(=O)N3CCCC3)ccc2-n2cnnc21 [Example 13, N-[6-(o-chlorophenyl)-4,4-dimethyl-4H-s-triazolo[4,3-a][1,4]benzodiazepin-8-yl]-1-pyrrolidinecarboxamide] | 72 | 155 | 97 | > 5000 |  |  |  |  |  | 
2 | CN(C)C(=O)Nc1ccc2c(c1)C(c1ccccc1Cl)=NCc1nncn1-2 [Example 8, 3-[6-(o-chlorophenyl)-4H-s-triazolo[4,3-a][1,4]benzodiazepin-8-yl]-1,1-dimethylurea] |  |  |  | > 5000 | 100 | 252 | 131 |  |  | 
3 | CN(C)C(=O)Nc1ccc2c(c1)C(c1ccccc1F)=NC(C)(C)c1nncn1-2 [Example 5, 3-[6-(o-fluorophenyl)-4,4-dimethyl-4H-s-triazolo[4,3-a][1,4]benzodiazepin-8-yl]-1,1-dimethylurea] | 65 | 238 | 106 | > 5000 |  |  |  |  |  | 
4 | Cc1nnc2n1-c1ccc(NC(=O)NCCO)cc1C(c1ccccc1Cl)=NC2(C)C [Example 12, 1-[6-(o-chlorophenyl)-1,4,4-trimethyl-4H-s-triazolo[4,3-a][1,4]benzodiazepin-8-yl]-3-(2-hydroxyethyl)urea] | 75 | 215 | 75 | > 5000 |  |  |  |  |  | 
5 | C[C@]12CCC(=O)C=C1CC[C@@H]1[C@@H]2[C@@H](O)C[C@]2(C=O)[C@@H](C(=O)CO)CC[C@@H]12 [aldosterone] |  |  |  |  |  |  |  | reduction of the excreted urine volume | increased potassium excretion | pronounced reduction of the sodium excretion
6 | Cc1nnc2n1-c1ccc(NC(=O)N(C)C)cc1C(c1ccccc1Cl)=NC2 [Example 10, 3-[6-(o-chlorophenyl)-1-methyl-4H-s-triazolo[4,3-a][1,4]-benzodiazepin-8-yl]-1,1-dimethylurea] |  |  |  | > 5000 | 112 | 252 | 103 |  |  | 
7 | Cc1nnc2n1-c1ccc(NC(=O)NCCO)cc1C(c1ccccc1F)=NC2(C)C [Example 4, 1-[6-(o-fluorophenyl)-1,4,4-trimethyl-4H-s-triazolo[4,3-a][1,4]benzodiazepin-8-yl]-3-(2-hydroxyethyl)urea] | 90 | 256 | 112 | > 5000 |  |  |  |  |  | 

Reference: US4374773A, “Triazolo-benzodiazepine derivatives” (Hoffmann-La Roche Inc., priority 1980, dated 1983)
